Measured values reported in patent US20110039819A1, “SUBSTITUTED PHENOXYBENZAMIDES” (priority 2008, published 2011).
Where two headings read alike, the source gives them in different places.

Tests used:
MEK1 = molecular target: T1, MEK1 (Homo sapiens, UniProt Q02750); experiment: MEK1 activation kinase assay (Assay 2, HTRF; Cot1 phosphorylates GST-MEK1); assay type: biochemical
T1 construct: purchased Millipore 14-420 (GST-MEK1); 14-703 (Cot1); host or cells: Cot1: insect cells (SF21)
Experimental: MEK1 Activation Kinase Assay
The kinase Cot1 activates MEK1 by phosphorylating its activation loop. The inhibitory activity of compounds of the present invention on this activation of MEK1 was quantified employing the HTRF assay described in the following paragraphs.
As substrate for the kinase reaction the unactive C-terminally His6-tagged GST-MEK1 fusion protein (Millipore cat. no 14-420) was used.
Then the kinase reaction was started by the addition of 2 μl of a solution of Cot1 in assay buffer and the resulting mixture was incubated for a reaction time of 20 min at 22° C. The concentration of Cot1 in the assay was adjusted depending of the activity of the enzyme lot and was chosen appropriate to have the assay in the linear range, typical enzyme concentrations were in the range of about 2 ng/μl (final conc. in the 5 μl assay volume).
The resulting mixture was incubated 2 h at 22° C. to allow the binding of the phosphorylated GST-MEK1 to the anti-GST-XL665 and the Eu-cryptate labelled anti-phospho-MEK 1/2 antibody. Subsequently the amount of Ser217/Ser221-phosphorylated substrate was evaluated by measurement of the resonance energy transfer from the Eu-Cryptate-labelled anti-phospho-MEK antibody to the anti-GST-XL665.

colon cancer = conditions: oral treatment, mouse models, reference [18]; cited from earlier work
MEK1/2 = conditions: second-generation MEK1/2 inhibitor, reference [17]; cited from earlier work
[1] = mean values from 2 or more measurements, read-out: Assay 2 IC50 values (nanomolar) (MEK1 activation kinase assay) (values are mean values from 2 or more measurements)
[2] = representative example compounds, read-out: IC50 in MEK1 activation kinase assay

T1 sequence (Q02750 whole entry): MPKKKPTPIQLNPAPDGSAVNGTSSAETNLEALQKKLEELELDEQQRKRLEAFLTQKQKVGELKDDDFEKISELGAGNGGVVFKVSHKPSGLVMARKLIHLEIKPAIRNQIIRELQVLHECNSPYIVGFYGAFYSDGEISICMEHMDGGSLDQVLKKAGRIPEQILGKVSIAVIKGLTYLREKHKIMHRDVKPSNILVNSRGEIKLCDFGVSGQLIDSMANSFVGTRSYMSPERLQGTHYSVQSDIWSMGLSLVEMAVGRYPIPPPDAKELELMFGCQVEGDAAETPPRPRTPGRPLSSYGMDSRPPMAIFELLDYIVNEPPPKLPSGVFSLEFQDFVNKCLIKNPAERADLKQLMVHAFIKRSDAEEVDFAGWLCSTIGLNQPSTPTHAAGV

| IC50 (MEK1; [1]) [nM] | IC50 (MEK1; [2]) [nM] | Compound | inhibition of colon cancer growth (colon cancer) | IC50 (MEK1/2) |
| --- | --- | --- | --- | --- |
| 49.1 | < 1000 | CN(C)S(=O)(=O)N(C)c1cccc(Oc2cc(F)cc(Nc3ccc(I)cc3F)c2C(N)=O)c1 [Example 10.6, 6-[3-[[(dimethylamino)sulfonyl](methyl)-amino]phenoxy]-4-fluoro-2-[(2-fluoro-4-iodophenyl)amino]-benzamide] | – | – |
| 75.4 | – | NC(=O)c1c(Nc2ccc(I)cc2F)cc(F)cc1Oc1cccc(NC(=O)c2ccon2)c1 [Example 5.84, Isoxazole-3-carboxylic acid {3-[2-carbamoyl-5-fluoro-3-(2-fluoro-4-iodo-phenylamino)-phenoxy]-phenyl}-amide] | – | – |
| 258 | < 1000 | Cn1cc(Oc2cc(F)cc(Nc3ccc(I)cc3F)c2C(N)=O)cn1 [Example 4.27, 4-Fluoro-2-(2-fluoro-4-iodo-phenylamino)-6-(1-methyl-1H-pyrazol-4-yloxy)-benzamide] | – | – |

More lines, now with the values behind:

| Compound | IC50 (MEK1; [1]) [nM] | IC50 (MEK1; [2]) [nM] | inhibition of colon cancer growth (colon cancer) | IC50 (MEK1/2) |
| --- | --- | --- | --- | --- |
| CC(C)(O)C(O)CCOc1cc(F)cc(Nc2ccc(I)cc2F)c1C(N)=O (single isomer, unassigned) [Example 6.4, 2-(3,4-Dihydroxy-4-methyl-pentyloxy)-4-fluoro-6-(2-fluoro-4-iodo-phenylamino)-benzamide] | 29.5 | – | – | – |
| CC(O)(CO)CCOc1cc(F)cc(Nc2ccc(I)cc2F)c1C(N)=O (stereo not drawn) [Example 6.2, 2-(3,4-Dihydroxy-3-methyl-butoxy)-4-fluoro-6-(2-fluoro-4-iodo-phenylamino)-benzamide] | 69.3 | – | – | – |
| O=C(NOCC1CC1)c1ccc(F)c(F)c1Nc1ccc(I)cc1Cl [PD184352] | – | – | inhibit colon cancer growth in vivo | low nanomolar range |
